Experiment [1] has as its system EGF-stimulated bone marrow cells. The experiment is described as follows: MTT assay, proliferation of EGF-stimulated bone marrow cells. Format: cell-based, mouse. The note with it: positive control, 50 ng/ml EGF. The protocol: Under sterile condition, C57BL/6j (male, 15-20 g, 4-6 weeks old) were sacrificed, and their femoral bones were injected with DMEM/F12 culture medium (Gibco, N.Y. USA) so as to flush out the bone marrow cells. The collected cells in DMEM/F12 culture medium were then filtered through a sterile No. 53 nylon mesh so as to obtain a single cell suspension, the cell concentration of which was subsequently adjusted to 6×10^5 cells/ml with DMEM/F12 culture medium containing N2 supplement (Sigma, Mo., USA).
The mouse bone marrow cells (1.5×10^5 nucleated cells/well) as prepared in the above Procedure (I) were placed into 96-well culture plates and incubated in 200 μl of a defined medium (DMEM/F12 plus N2 supplement) supplemented with EGF (at a final concentration of 10 ng/ml). After incubation at 37° C. for 24 hrs, different concentrations (0.01 μg/ml, […], 1 μg/ml, 10 μg/ml and 100 μg/ml) of the extracts of Polygonum multiflorum Thunb. root obtained in Example 1 were added into the wells of the culture plates, respectively. […]
Subsequently, MTT assay was performed. […] The culture plates were allowed to stand for 14 hours and then subjected to absorbance detection using a microplate reader at O.D. 550 nm-O.D. 690 nm. […] The obtained experimental data were analyzed by Student's t-test.
On the technique in general: Formazan colour is commonly taken as a measure of viable cells.

In experiment [2] the test system is dexamethasone-stimulated mouse primary bone marrow cell cultures. The experiment is described as follows: Alkaline phosphatase colorimetry, dexamethasone-stimulated osteogenic cell maturation (test A). The settings on record: positive control, 0.1 nM estrogen. Format: cell-based. The procedure: Under sterile condition, C57BL/6j (male, 15-20 g, 4-6 weeks old) were sacrificed, and their femoral bones were injected with alpha-minimal essential medium (α-MEM) culture medium (Gibco, N.Y., USA) so as to flush out the bone marrow cells. The collected cells in α-MEM culture medium were then filtered through a sterile No. 53 nylon mesh so as to obtain a single cell suspension.
The mouse bone marrow cells (1.5×10^5 nucleated cells/well) as prepared in the above Procedure (I) were placed into 96-well culture plates and incubated in α-MEM supplemented with 15% FCS, 10 μM dexamethazone, 50 μg/ml ascorbic acid, and 10 mM sodium, β-glycerophosphate. After incubation at 37° C. for 48 hrs, extracts of Polygonum multiflorum Thunb. root with different concentrations (0.01 μg/ml, 0.1 μg/ml, 1 μg/ml, 10 μg/ml, 100 μg/ml and 1000 μg/ml) were added into the wells of the culture plates, respectively. […]
The alkaline phosphatase (AP) colorimetry (Aubin, J. E. et al. (1995), Bone, 17: 77S-83S; Sabokbar, A. et al. (1994), Bone & Mineral, 27: 57-67) was conducted as follows: The culture medium in each well of the culture plates was removed, and the remaining cells were added with 120 μl of 0.01% SDS and incubated in a 37° C. incubator for 10 minutes. […] After a reaction time of 10-15 minutes at 37° C., the culture plates were subjected to absorbance detection at O.D. 405 nm.

For experiment [3], the system named is mGM-CSF-stimulated mouse primary bone marrow cultures. The experiment is described as follows: MTT assay, mGM-CSF-stimulated proliferation of bone marrow cultures. Format: cell-based. The note with it: positive control, mGM-CSF 20 ng/ml. The procedure: Subsequently, MTT assay was performed. Each well of the culture plates was added with a MTT solution (5 mg/ml dissolved in 1×PBS) to a final concentration of 1 mg/ml. Four hours later, each well of the culture plates was added with a MTT lysis buffer (20% sodium dodecyl sulfate (SDS) in 50% dimethylformamide (DMF)/50% H2O) in an amount of 150 μl/well. The culture plates were allowed to stand for 14 hours and then subjected to absorbance detection using a microplate reader at O.D. 550 nm-O.D. 690 nm. Each experiment was conducted in duplicate, and n=6 wells for each group. The obtained experimental data were analyzed by Student's t-test.
The mouse bone marrow cells (1.5×10^5 nucleated cells/well) prepared according to the procedures set forth in Procedure (I) of Example 5 were placed into 96-well culture plates and incubated in RPMI supplemented with 5% FCS and mGM-CSF (at a final concentration of 2 ng/ml). After incubation at 37° C. for 24 hrs, extracts of the Polygonum multiflorum Thunb. root with different concentrations (0.1 μg/ml, 1 μg/ml, 10 μg/ml and 100 μg/ml) were added into the wells of the culture plates, respectively. The positive control group was treated with 20 ng/ml mGM-CSF, and the negative control group was treated with 2 ng/ml mGM-CSF. […]

For “EGF: epidermal growth factor, 50 ng/ml positive control”, the Proliferation index in experiment [1] is 1.26 (±0.13). estrogen showed an AP activity index in experiment [2] of 1.28.

B1: mGM-CSF: granulocyte-monocyte colony stimulating factor, 20 ng/ml positive control (protein, UniProt P01587 18-141, looked up)
Granulocyte-macrophage …: APTRSPITVTRPWKHVEAIKEALNLLDDMPVTLNEEVEVVSNEFSFKKLTCVQTRLKIFEQGLRGNFTKLKGALNMTASYYQTYCPPTPETDCETQVTTYADFIDSLKTFLTDIPFECKKPGQK
In experiment [3], B1 registered a Proliferation index of 2.05.

These data come from patent US8168236B2, “Extracts of Polygonum multiflorum thunb., and preparation process and uses of the same” (National Yang-Ming University, priority 2003, dated 2012).
